The NIST ThermoML archive (doi:10.1021/acs.jced.5b00992)
± gives the expanded uncertainty stated by the source.

Experiments:
[1] = wn = mass fraction of the nth substance listed; conditions: 313.15 K, 88.4 kPa, Liquid; for viscosity: Capillary tube (Ostwald / Ubbelohde) method; for mass density: Pycnometric method
[2] = refractive index (Na D-line) (dimensionless); wn = mass fraction of the nth substance listed; conditions: 313.15 K, 88.4 kPa, Liquid, Standard Abbe refractometry

| viscosity ([1]; w1 = 0.129) [mPa·s] | mass density ([1]; w1 = 0.129) [kg/m3] | refractive index ([2]; w1 = 0.129) | viscosity ([1]; w1 = 0.3237) [mPa·s] | mass density ([1]; w1 = 0.3237) [kg/m3] | refractive index ([2]; w1 = 0.3237) | Compound |
| --- | --- | --- | --- | --- | --- | --- |
| 0.8181 ± 0.082 | 1097.5 ± 2.3 | 1.3466 ± 0.0006 |  |  |  | O=S(=O)([O-])[O-].[K+].[K+] [potassium sulfate] + O |
|  |  |  | 2.871 ± 0.29 | 1317.6 ± 3.7 | 1.3774 ± 0.0006 | O=S(=O)([O-])[O-].[Na+].[Na+] [sodium sulfate] + O |
